# Data taken from patent EP0472573B1, “HERBICIDE RESISTANT MAIZE” (ZENECA LIMITED, priority 1989, dated 1990).
# Key:
# Type in all cases: in vivo, Zea mays
# Mutant 5 plants = test: Cross-resistance testing (glasshouse dose response), Mutant 5; conditions: pre-emergence spray, assessed after four weeks growth
# Text: (§1) The seeds used in this screen were populations of mixed tolerant and sensitive seed, segregating 1:1, derived from each of the heterogygous, tolerant mutants crossed with homozygous, sensitive UE95. All of the tolerant progeny are heterozygous for tolerance. Each of the mutants identified above were used except mutant 4. The controls were seed of self-pollinated UE95 which was pollinated in the same year as the tolerant lines.
# (§2) One litre of compost was placed in each seed tray of dimensions 19cm x 11cm x 5cm deep and firmed down flat. Two furrows 1 cm deep were drawn in the surface of the compost in each tray and six seeds were sown in each furrow (total twelve seeds per tray). Some trays were sown with 24 seeds, in which case three furrows were made and 8 seeds sown per furrow.
# (§3) In each test each tray contained either the seed of one mutant or of the UE95 control for each herbicide application rate and for the untreated control.
# (§4) Five different types of ALS-inhibitor herbicides were tested on the mutants plus imazethapyr (PURSUIT) as a comparison. Four rates of each were applied; approximately 0.1x, 0.5x, 1x and 4x the estimated field rates for each herbicide. The rates are the same for mutant 3 to 10 but higher rates for chlorimuron (CLASSIC) and lower rates for chlorsulfuron (GLEAN) were applied to mutants 1 and 2.
# (§5) The rates of application used in the screening tests were as follows: chlorimuron (CLASSIC) 4,20,40,160 g/Ha (mutants 1 and 2); and, 8,40,80,320 g/Ha (mutants 3 to 10); chlorsulfuron (GLEAN) 5,25,50,200 g/Ha (mutants 1 and 2); and, 1,5,10,40 g/Ha (mutants 3 to 10); imazaquin (SCEPTER) 30,150,300,1200 g/Ha; triazolopyrimidine 5,25,50,200 g/Ha; phenoxypyrimidine 10,50,100,400 g/Ha; and, imazethapyr (PURSUIT) 30,150,300,1200 g/Ha The triazolopyrimidine and phenoxypyrimidine were formulated in an adjuvant wetting agent known as JF5969 and diluted with water to make a final concentration of 10% JF5969. The remaining compounds were diluted with water only.
# (§6) The spray jet and parameters were as decribed above under "SCREENING". After spraying, the seeds were covered with 0.5 litre of compost and firmed down flat (2.5cm covering) and grown under the conditions described under "SCREENING" above.
# (§7) Visual assessments were made of the plants after four weeks growth. Each plant was scored on a scale of zero to 5 and the height measured from soil surface to the tallest leaf tip. The scoring scale was as follows: 0 - 0 to 10% damage (little or no herbicidal effect) 1 - 11 to 25% damage 2 - 26 to 50% damage 3 - 51 to […] 4 - 81 to 95% damage 5 - 96 to 100% damage (complete death of the plant) In carrying out these assessments, plants which were obviously of the sensitive phenotype were ignored (approximately 50% of the plants). […]
# Mutant 7 plants = test: Cross-resistance testing (glasshouse dose response), Mutant 7; conditions: pre-emergence spray, assessed after four weeks growth
# Text: as §1, §2, §3, §4, §5, §6, §7
# [1] = test system: M1 seed of maize inbred line UE95 (sensitive plants); test: Pre-emergence screening of M1 seed
# Procedure: M1 seed was sown, 100 seeds per tray, in WCB growing medium (low organic matter, 45% loam, 55% grit) and sprayed to 'run-off' using a track sprayer, with a solution of imazethapyr (PURSUIT) at a concentration calculated to be the equivalent of 250 g/ha of active ingredient . The seeds were covered with 0.5 inch of WCB and grown in the glasshouse at 25°C.
# The chosen application rate was such that germination was close to 100%, but subsequently all susceptible plants were severely affected. However, after about two weeks, the initial effect of the herbicide became apparent: thin striped leaves and reduced height of only about 20% of the height of the control plants. […] Unsprayed UE95 plants were always grown in parallel with each screen as a control as it was already known that normal and M1 seedlings of UE95 are almost indistinguishable when germinated and grown to maturity without spraying.
Compound,"resistance group, Dose Response (Mutant 5 plants)","resistance group, Dose Response (Mutant 7 plants)","germination ([1]; 250 g/ha of active ingredient, pre-emergence, glasshouse at 25°C)","effect on sensitive plants ([1]; 250 g/ha, after three to four weeks)","reduced height ([1]; 250 g/ha, susceptible plants, after about two weeks)"
"COc1cc(Cl)nc(NC(=O)NS(=O)(=O)c2ccccc2C(=O)O)n1 [Chlorimuron, chlorimuron]",Zero,Zero,–,–,–
"COc1nc(C)nc(NC(=O)NS(=O)(=O)c2ccccc2Cl)n1 [Chlorsulfuron, chlorsulfuron]",Weak,Weak,–,–,–
"CC(C)C1(C)N=C(c2nc3ccccc3cc2C(=O)O)NC1=O (centres unmarked) [Imazaquin, imazaquin]",Intermediate,Zero,–,–,–
"CCc1cnc(C2=NC(=O)C(C)(C(C)C)N2)c(C(=O)O)c1 (centres unmarked) [Imazethapyr, 5-ethyl-2-(5-iso-propyl-5-methyl-4-oxo-2-imidazolin-2-yl) nicotinic acid]",Strong,Weak,~100%,almost all the sensitive plants were completely dead,about 20 % of the height of the control plants
